The assay addresses T1, FLT3-ITD (Homo sapiens, UniProt P36888).
T1 sequence (P36888 1-993): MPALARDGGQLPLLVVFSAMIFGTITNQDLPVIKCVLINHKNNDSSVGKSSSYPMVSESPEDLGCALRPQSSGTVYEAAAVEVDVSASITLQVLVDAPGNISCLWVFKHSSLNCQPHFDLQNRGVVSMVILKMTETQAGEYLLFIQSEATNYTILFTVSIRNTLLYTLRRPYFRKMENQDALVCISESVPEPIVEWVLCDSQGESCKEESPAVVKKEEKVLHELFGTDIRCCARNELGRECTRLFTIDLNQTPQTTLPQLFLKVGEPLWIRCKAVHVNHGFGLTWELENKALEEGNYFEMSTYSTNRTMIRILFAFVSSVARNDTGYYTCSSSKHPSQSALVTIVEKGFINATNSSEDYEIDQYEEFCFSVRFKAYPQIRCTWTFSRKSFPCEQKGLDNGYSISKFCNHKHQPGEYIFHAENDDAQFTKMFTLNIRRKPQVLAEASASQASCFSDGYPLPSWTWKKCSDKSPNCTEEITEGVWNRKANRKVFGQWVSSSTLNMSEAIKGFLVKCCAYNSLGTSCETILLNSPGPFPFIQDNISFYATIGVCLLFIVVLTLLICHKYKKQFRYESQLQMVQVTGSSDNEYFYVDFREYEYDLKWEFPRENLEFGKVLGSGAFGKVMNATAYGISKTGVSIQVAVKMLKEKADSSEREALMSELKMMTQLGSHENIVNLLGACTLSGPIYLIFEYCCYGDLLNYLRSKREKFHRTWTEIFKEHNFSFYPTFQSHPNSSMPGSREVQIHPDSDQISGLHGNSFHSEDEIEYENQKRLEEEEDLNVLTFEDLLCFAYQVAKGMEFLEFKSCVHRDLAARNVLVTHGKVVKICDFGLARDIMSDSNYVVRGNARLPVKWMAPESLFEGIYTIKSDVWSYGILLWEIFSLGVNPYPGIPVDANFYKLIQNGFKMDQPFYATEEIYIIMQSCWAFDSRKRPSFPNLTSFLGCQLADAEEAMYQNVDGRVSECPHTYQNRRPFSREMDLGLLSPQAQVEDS
The assay is described as follows: FLT3-ITD recombinant enzyme kinase assay (AlphaScreen). Particulars: 8 pt; read-out: FLT3_ITD 8 pt: IC50. It is filed as biochemical. An outline of the steps: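 Kinase activity of recombinant FLT3-ITD, FLT3-D835Y and c-KIT was followed via phosphotyrosine formation on a 30 nM biotin-peptide substrate, captured on streptavidin donor and anti-phosphotyrosine acceptor AlphaScreen beads. ATP was set at 10 μM for FLT3 and 100 μM for c-KIT.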
Background: Bead proximity is the source of the signal in Alpha formats.

Consider `Cn1cc(Nc2ncc(-c3ccc(CC(=O)Nc4cc(C(F)(F)F)ccn4)cc3F)cn2)cn1` [Compound P-0017, 2-[3-fluoro-4-[2-[(1-methylpyrazol-4-yl)amino]pyrimidin-5-yl]phenyl]-N-[4-(trifluoromethyl)-2-pyridyl]acetamide], for which the IC50 fell in the range of 0.0001 to 10 µM.
As for `COc1ncc(NC(=O)Cc2ccc(-c3cnc4[nH]nc(N)c4c3)cc2)cc1C(F)(F)F` [Compound P-0216, 2-(4-(3-amino-1H-pyrazolo[3,4-b]pyridin-5-yl)phenyl)-N-(6-methoxy-5-(trifluoromethyl)pyridin-3-yl)acetamide], the IC50 lay in the range of 0.0001 to 10 µM.
On to `Cc1ncc(NC(=O)Cc2ccc(-c3cnc(Nc4cnn(C)c4C)nc3)cc2)cc1C(F)(F)F` [Compound P-0229, 2-[4-[2-[(1,5-dimethylpyrazol-4-yl)amino]pyrimidin-5-yl]phenyl]-N-[6-methyl-5-(trifluoromethyl)-3-pyridyl]acetamide], for which the IC50 is 0.0001 to 10 µM.
As for `CC(C)(O)C#Cc1cc2cc(-c3ccc(CC(=O)Nc4cncc(C(F)(F)F)c4)cc3)cnc2[nH]1` [Compound P-0204, 2-[4-[2-(3-hydroxy-3-methyl-but-1-ynyl)-1H-pyrrolo[2,3-b]pyridin-5-yl]phenyl]-N-[5-(trifluoromethyl)-3-pyridyl]acetamide], the figure is 0.0001 to 10 µM.
Take `COc1ncc(NC(=O)Cc2ccc(-c3cnc4[nH]c(C#Cc5cncn5C)cc4c3)cc2)cc1C(F)(F)F` [Compound P-0227, N-[6-methoxy-5-(trifluoromethyl)-3-pyridyl]-2-[4-[2-[2-(3-methylimidazol-4-yl)ethynyl]-1H-pyrrolo[2,3-b]pyridin-5-yl]phenyl]acetamide]: the IC50 was 0.0001 to 10 µM.
Take `COc1ncc(NC(=O)Cc2ccc(-c3cnc4[nH]nc(OC)c4c3)cc2)cc1C(F)(F)F` [Compound P-0212, 2-[4-(3-methoxy-1H-pyrazolo[3,4-b]pyridin-5-yl)phenyl]-N-[6-methoxy-5-(trifluoromethyl)-3-pyridyl]acetamide]: the IC50 lay within 0.0001 to 10 µM.
Consider `CCn1cc(Nc2ncc(-c3ccc(CC(=O)Nc4cnc(Cl)c(C(F)(F)F)c4)c(F)c3)cn2)cn1` [Compound P-0260, N-[6-chloro-5-(trifluoromethyl)-3-pyridyl]-2-[4-[2-[(1-ethylpyrazol-4-yl)amino]pyrimidin-5-yl]-2-fluoro-phenyl]acetamide], for which the IC50 lay within 0.0001 to 10 µM.
For the compound `COCCn1cc(Nc2ncc(-c3ccc(CC(=O)Nc4cc(C(F)(F)F)ccn4)c(F)c3)cn2)cn1` [Compound P-0270, 2-[2-fluoro-4-[2-[[1-(2-methoxyethyl)pyrazol-4-yl]amino]pyrimidin-5-yl]phenyl]-N-[4-(trifluoromethyl)-2-pyridyl]acetamide], the IC50 was 0.0001 to 10 µM.
As for `COCCn1cc(Nc2ncc(-c3ccc(CC(=O)Nc4ccc(C(F)(F)F)cn4)cc3)cn2)cn1` [Compound P-0274, 2-[4-[2-[[1-(2-methoxyethyl)pyrazol-4-yl]amino]pyrimidin-5-yl]phenyl]-N-[5-(trifluoromethyl)-2-pyridyl]acetamide], the IC50 fell in the range of 0.0001 to 10 µM.
Consider `Cc1ncc(NC(=O)Cc2ccc(-c3cnc4[nH]c(C#CC(C)(C)O)cc4c3)cc2)cc1C(F)(F)F` [Compound P-0220, 2-[4-[2-(3-hydroxy-3-methyl-but-1-ynyl)-1H-pyrrolo[2,3-b]pyridin-5-yl]phenyl]-N-[6-methyl-5-(trifluoromethyl)-3-pyridyl]acetamide], for which the IC50 was 0.0001 to 10 µM.
Consider `O=C(Cc1ccc(-c2cnc3[nH]c(-c4ccnc(N5CCOCC5)c4)cc3c2)c(F)c1)Nc1cncc(C(F)(F)F)c1` [Compound P-0201, 2-[3-fluoro-4-[2-(2-morpholino-4-pyridyl)-1H-pyrrolo[2,3-b]pyridin-5-yl]phenyl]-N-[5-(trifluoromethyl)-3-pyridyl]acetamide], for which the IC50 lay in the range of 0.0001 to 10 µM.
`Cn1cnc(Nc2ncc(-c3cc(F)c(CC(=O)Nc4cc(C(F)(F)F)ccn4)cc3F)cn2)c1` [Compound P-0020, 2-[2,5-difluoro-4-[2-[(1-methylimidazol-4-yl)amino]pyrimidin-5-yl]phenyl]-N-[4-(trifluoromethyl)-2-pyridyl]acetamide]: the IC50 lay in the range of 0.0001 to 10 µM.

The IC50 is the point on the concentration scale where inhibition reaches its midpoint.
